Our source for the Km values is publication PMC6150198, “Functional Characterization of a Hydroxyacid/Alcohol Hydroxycinnamoyl Transferase Produced by the Liverwort Marchantia emarginata” (Molecules : A Journal of Synthetic Chemistry and Natural …, 2017).

In the assay the test system is T1, MeHFT.
T1 construct: ~71 kDa on gel), E. coli BL21(DE3), Ni-NTA; primers encode N-terminus MGAEEV and C-terminus EEAIKL; cDNA 1413 nt from transcriptome SRP078649
The assay is described as follows: HPLC of alkyl ferulate product, UV […] nm, Michaelis-Menten fit. It is filed as biochemical, Marchantia emarginata. The following applies: 0.1 M Tris-HCl pH 7.5, 40 °C, 10 min.

One may read the Km as the concentration of substrate that gives half-maximal velocity. Turning to `CCCCCCCCCCO` [1-Decanol], the Km (acyl acceptor varied, 0.1 mM feruloyl-CoA) is 65.5 ± 11.2 µM.
For `COc1cc(/C=C/C(=O)SCCNC(=O)CCNC(=O)[C@H](O)C(C)(C)COP(=O)(O)OP(=O)(O)OC[C@H]2O[C@@H](n3cnc4c(N)ncnc43)[C@H](O)[C@@H]2OP(=O)(O)O)ccc1O` [Feruloyl-CoA], the Km (acyl donor varied, 0.1 mM 1-decanol) came out at 79.4 ± 10.9 µM.
